Data from US20250312365A1, “METHODS FOR INHIBITION OF SQUAMOUS CARCINOMA CELLS USING CERAMIDE MODULATORS” (The Trustees of Indiana University, priority 2024, published 2025).
Entries after “also recorded” stand apart in the source; their conditions may differ.

Columns and labels:
Format in all cases: cell-based, human
[1] = tested on: tongue squamous carcinoma cells (SCC9); experiment: Cell viability/proliferation assay (WST-1) in SCC9 cells; conditions: 0.1 μg/ml and 1 μg/ml; WST-1
Excerpt: In specific examples, colorimetric assays can be used to assess cellular viability and proliferation of cell cultures, such as MTT, WST-1, and resazurin assays. See, e.g., Präbst et al., Methods Mol Biol. 2017:1601:1-17.
Various cell lines were exposed to PGDHC, including human gingival squamous carcinoma cells (OECM1), tongue squamous carcinoma cells (SCC4, SCC9), and healthy human gingival epithelial control cells (OBA9) in vitro.
LCL521 is a dose-dependent acid ceramidase inhibitor. Comparison of the concentration-dependent effects of an acid ceramidase inhibitor, LCL521 (MedChemExpress®), and the bacterial-isolated a15:0-15:0PE phospholipid on the viability of healthy human epithelial, OBA9, and oral squamous cancer cell lines, OECM1 and SCC9, in vitro was evaluated. […] (FIG. 15A). […] (FIG. 15B).

[2] = tested on: N-cadherin; experiment: Western blot of N-cadherin in OECM1 cells; conditions: 24 h of treatment
Experimental: (§1) To determine the effect of PGDHC on cell markers involved in metastasis, the protein levels of p-STAT3, EMT markers, E-cadherin, N-cadherin, and Vimentin in OECM1 cells following in vitro exposure to PGDHC were determined by Western blot assay.

[3] = tested on: Vimentin; experiment: Western blot of Vimentin in OECM1 cells; conditions: 24 h of treatment
Experimental: as §1

[4] = tested on: ASAH1; experiment: ASAH1 (acid ceramidase) mRNA expression in OECM1 cells; conditions: 0.1 or 1 μg/ml of PGDHC
Excerpt: (§2) Exemplary ceramidase genes, the expression of which can be measured to determine upregulation, include but are not limited to ASAH1, ACER2, and ACER3. A determination of ceramidase gene expression can be made according to methods available to one of skill in the art. For example, Yamada et al., J Cell Mol Med. 2023 May;27(9):1290-1295 and Kyriakou et al., Int. J. Mol. Sci. 2020, 21(5):1607 describes measuring the mRNA levels of ceramidases by RNA extraction and RT-PCR.
(§3) To test this hypothesis, it was first determined whether artificially elevated intracellular concentration of ceramide species affect the expression of acid/ASAH1, neutral/ASAH2, and alkaline1-3/ACER1-3 ceramidases in oral squamous cell carcinoma cells using C6-ceramide. Applicant previously reported that C6-ceramide serves as a positive control for PGDHC-mediated inflammation (Kanzaki et al., Biochim Biophys Acta Mol Cell Biol Lipids. 2017 May;1862(5):452-462) and promotes the intracellular accumulation of ceramide in cancer cells. See, e.g., Zhang et al., Front Plant Sci. 2020 Feb. 26:11:145, Zhai et al., Biochem Biophys Res Commun. 2015 December;468(1-2):274-80, Wilhelm et al., Cancers (Basel). 2021 Jan. 13;13(2):270, and Chapman et al., Biochem Pharmacol. 2010 Aug. 1;80(3):308-15.
(§4) Next, the effect of PGDHC on ceramidase gene expression was determined. OECM1 and SCC4 cells were exposed to 0.1 or 1 μg/ml of PGDHC. The mRNA levels of ceramidases were then measured following PGDHC exposure. PGDHC inhibited the expression of ASAH1 and ACER2 mRNAs in OECM1 (FIG. 8). […] See, e.g., Vijayan et al., J Adv Res. 2023 Dec. 21:S2090-1232(23)00403-4, Doan et al., Oncotarget. 2017 Nov. 7;8(68):112662-112674., Lai et al., Sci Rep. 2021 May 27;11(1):11221, Liu et al., Cancer Sci. 2020 July;111(7):2259-2274., and Liu et al., Front Genet. 2023 Mar. 1:14:1148437.
(§5) To elucidate the effects of C16:0 and dh-C16:0 on oral squamous cell carcinoma, the ability of exogenous C16:0 and dh-C16:0 to modulate proliferation and ceramidase expression in OECM1 cells was determined. […] In contrast, no effect of C16:0 on ASAH1 and ACER2 mRNA expressions.
We evaluated the effect of a15:0-i15:0 phosphoethanolamine phospholipid (FIG. 1D), isolated from the gut bacteria Akkermansia muciniphila on OSCC cells.

[5] = tested on: ACER2; experiment: ACER2 mRNA expression in OECM1 cells; conditions: 0.1 or 1 μg/ml of PGDHC
Excerpt: as §2, §3, §4, §5

[6] = tested on: SCC9 cells; experiment: Untargeted metabolomic pathway analysis (LC/MS) in SCC9 cells; conditions: 1 μg/ml for 6 h
Excerpt: The plots in FIGS. 16A and 16B display the enriched pathways identified in the analysis, with their corresponding significance levels represented on the x-axis. The significance threshold (p<0.05) is denoted by the dashed line. […] Additionally, the color of the dots represents the enrichment, which indicates the extent to which the metabolites in the pathway were clustered amongst the compounds with the most positive fold-changes (positive enrichments), the most negative fold-changes (negative enrichments), or uniformly distributed across high and low fold-change compounds (enrichment values near 0.0). […] Polar and lipid metabolites were analyzed with hydrophilic interaction chromatography (HILIC/MS) and liquid chromatography (LC/MS), respectively. Mass spectrometry analysis was completed with a mass range of 67-1500 Da with 1 scan/sec and a mass resolution of 120,000 in both positive and negative ionization mode. The MS/MS mass-spectrometry data were acquired in a data-dependent iterative fashion with a 1.3 m/z isolation window. Based upon this metabolomic analysis, phosphoglycerol dihydroceramide (PGDHC) isolated from Porphyromonas gingivalis inhibits metabolomic pathways essential for cell survival in oral squamous cell carcinoma cells (OSCC). […]
SCC9 were exposed to a15:0-i15:0PE (1 μg/ml) for 6 h in vitro. […] The significance threshold (p<0.05) is denoted by the grey dashed line. […] Additionally, the color of the dots represents the enrichment, which indicates the extent to which the metabolites in the pathway were clustered amongst the compounds with the most positive fold-changes (positive enrichments), the most negative fold-changes (negative enrichments), or uniformly distributed across high and low fold-change compounds (enrichment values near 0.0).

phosphoglycerol dihydroceramide [PGDHC] was tested, and the “proliferation of SCC9 cells” value [1] was “did not have an observable effect”, the “protein level of N-cadherin in OECM1 cells” value [2] was “little to no detectable effect” and the “protein level of Vimentin in OECM1 cells” value [3] was “little to no detectable effect”. For the same substance, the “expression of ASAH1 mRNA in OECM1” value [4] was “inhibits; also recorded: dramatically inhibited”, the “expression of ACER2 mRNA in OECM1” value [5] was “inhibited” and the “Warburg effect in SCC9 cells” value [6] was “altered”. For the same substance, the “arginine and proline metabolism in SCC9 cells” value [6] was “diminished accumulation; also recorded: inhibits”, the “de novo triacylglycerol biosynthesis in SCC9 cells” value [6] was “diminished accumulation; also recorded: inhibits” and the “folate metabolism in SCC9 cells” value [6] was “diminished accumulation; also recorded: inhibits”. For the same substance, the “glycine and serine metabolism in SCC9 cells” value [6] was “diminished accumulation; also recorded: inhibits”, the “level of ATP in SCC9 cells (relative abundance)” value [6] was “altered” and the “level of glucose in SCC9 cells (relative abundance)” value [6] was “altered”. For the same substance, the “mitochondrial electron transport in SCC9 cells” value [6] was “diminished accumulation; also recorded: inhibits”.
